Results reported in BindingDB's records for doi:10.1021/jm960486n (Eli Lilly, 1997).

What was measured:
[1] = target: Phospholipase A2 group IB, pancreatic (Homo sapiens) (UniProt P04054); experiment: Inhibitory activity against human pancreatic Phospholipase A2
[2] = target: Phospholipase A2, pancreatic group IB (Sus scrofa); experiment: Inhibitory activity against porcine pancreatic Phospholipase A2

Sequence of Phospholipase A2 group IB, pancreatic (Homo sapiens) (P04054 whole entry, looked up): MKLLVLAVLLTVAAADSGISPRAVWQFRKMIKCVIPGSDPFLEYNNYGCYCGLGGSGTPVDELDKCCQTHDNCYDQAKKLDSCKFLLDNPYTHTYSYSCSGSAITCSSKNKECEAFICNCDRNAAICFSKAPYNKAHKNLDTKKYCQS

Compound | IC50 [1] [µM] | IC50 [2] [nM]
Cc1c(CC(N)=O)c2cc(OCc3ccccc3C(=O)O)ccc2n1Cc1ccccc1 [2-(1-Benzyl-3-carbamoylmethyl-2-methyl-1H-indol-5-yloxymethyl)-benzoic acid] | 22.5 | 7500
Cc1c(CC(N)=O)c2c(OCC(=O)O)cccc2n1Cc1ccccc1-c1ccccc1 [Sodium; (1-biphenyl-2-ylmethyl-3-carbamoylmethyl-2-methyl-1H-indol-4-yloxy)-acetate] | 4.09 | 14
Cc1c(CC(N)=O)c2c(OCC(=O)O)cccc2n1Cc1cccc(Cl)c1 [Sodium; [3-carbamoylmethyl-1-(3-chloro-benzyl)-2-methyl-1H-indol-4-yloxy]-acetate] | 1.2 | 20

More lines, main results first:

IC50 [1] [µM] | Compound | IC50 [2] [nM]
15.9 | NC(=O)Cc1c(Br)n(Cc2ccccc2)c2ccc(OCCCC(=O)O)cc12 [4-(1-Benzyl-2-bromo-3-carbamoylmethyl-1H-indol-5-yloxy)-butyric acid] | 
6.2 | NC(=O)Cc1c(Br)n(Cc2ccccc2)c2ccc(OCCCP(=O)(O)O)cc12 [[3-(1-Benzyl-2-bromo-3-carbamoylmethyl-1H-indol-5-yloxy)-propyl]-phosphonic acid] | 2200
